Reference: patent US20100035297A1, “METHODS AND COMPOSITIONS FOR VASCULOGENIC POTENTIAL DETERMINATION” (INDIANA UNIVERSITY RESEARCH AND TECHNOLOGY CORPORATION, priority 2008, published 2010)

What was measured:
Type in all cases: cell-based, human
[1] = test system: vascular network formation by EC on ASC monolayer; assay: Vascular network formation (VNF) in EC-ASC co-culture; conditions: 6 days
Experimental: Medium with the same supplements were exchange at day 3. At day 6, wells with the co-cultures were fixed with methanol, stained for human CD31 antigen; 5-9 pictures/well at 4× were taken under fluorescent microscope and were analyzed for total tube length and branch points.
Co-culture of EC and ASC: ASCs were plated on culture plastic at a density of 60×10^3 cells/cm^2 in EBM-2/5% FBS media. In most experiments, ASCs were allowed to attach to the plates for three hours and then ECs from the indicated sources were plated on the top of ASC monolayer at densities ranging from 625 to 10,000 cells/cm^2. Cells were cultured in EBM-2/5% FBS for six days with media change at day 3. In a separate set of experiments, ASCs at 60×10^3 cells/cm^2 and CBD-ECs at 5×10^3 cells/cm^2 were premixed in EBM-2/5% FBS prior to plating.
In experiments assessing the role of various factors on EC-ASC interactions, co-cultures were incubated for 6 days in EBM-2/5% FBS media supplemented with: (1) neutralizing IgGs to: VEGF (RnD Systems, 2 μg/ml), HGF (RnD Systems, 2 μg/ml) or corresponding control mouse and goat IgGs (RnD Systems); (2) 10 μM GM6001 (Millipore, Billerica, Mass.), an inhibitor of MMP activity with a wide range of activity; (3) 50 μM AG1296 (Alexis, San Diego, Calif.), an inhibitor of PDGF receptor β activity; (4) and DMSO, which was used to dilute GM6001 and AG1296, as a negative control. Test cultures were exposed to the varying media conditions for six days.
(§1) Co-culture of ECs on ASC, NHDF and smooth muscle cell monolayers: Either ASCs, NHDFs, CASMCs, or AoSMCs were plated at a density of 60×10^3 cells/cm^2 in EBM-2/5% FBS media, three hours prior to overlaying them with 5×10^3 cells/cm^2 of CBD-ECs as previously described. The mixed cultures were incubated for six days with a routine media change at day 3. In experiments evaluating the effect of ASC conditioned media (ASC-CM) or added growth factors on vascular network formation, cells were cultured in EBM-2/5% FBS media that was either premixed with ASC-CM at a 1:1 ratio or supplemented with VEGF or HGF (10 ng/ml) as single growth factor controls. To generate ASC-CM, ASCs were grown to confluence in EGM-2mv in T75 flasks, followed by media replacement with EBM-2/5% FBS. After one day, 10 ml fresh EBM-2/5% FBS media was applied and removed after 72 hours conditioning. ASC-CM was collected, centrifuged at 300 g for five minutes, and supernatants frozen at 80° C. Cell number at the time of media collection was determined using hemocytometer.

[2] = test system: ASCs; assay: hASC mitogenic response to individual growth factors; conditions: factor added to basal medium, 10 pg to 10 ng, 4 days
Experimental: Evaluation of hASC Mitogenic Response to Individual Growth Factors: Freshly isolated ASCs were adhered on cell culture plastic for 2 days before harvesting attached cells with 0.05% trypsin/EDTA. Cells were seeded at 3×10^3 cells/cm^2 in 12-well plates and allowed to attach overnight in EBM-2/5% FBS medium, which was then replaced with EBM-2/5% FBS alone (control) or EBM-2/5% FBS supplemented with basic fibroblast growth factor (bFGF), epidermal growth factor (EGF), or platelet-derived growth factor (PDGF)-BB individually at final concentrations of 10 pg, 100 pg, 1 ng, or 10 ng each or the mixture of all of these, each at the specified concentration. Cells were cultured for 4 days, with a medium change after 48 hours, and then detached using 0.05% trypsin/EDTA, and viable cells were counted using a hemacytometer and trypan blue. Proliferation data are presented as the ratio of cells per well supplemented with growth factor to cells per well in control media.

[3] = test system: EC+CASMC co-culture; assay: VNF by ECs co-cultured on CASMC monolayer; conditions: growth factor 10 ng/ml, 6 days; control 0.37±0.13
Experimental: as §1

[4] = test system: EC+fibroblast co-culture; assay: VNF by ECs co-cultured on fibroblast (NHDF) monolayer; conditions: growth factor 10 ng/ml, 6 days; control 0.54±0.1
Experimental: as §1

Compound: COc1cc2ncc(-c3ccccc3)nc2cc1OC [AG1296]
- total tube length ([1]; 50 μM, DMSO control 5.29±0.31): 1.07±0.14 mm/mm^2
- degree of network branching ([1]; 50 μM, DMSO control 5.88±0.67): 0.26±0.06 branches/mm^2

Compound: CNC(=O)[C@H](Cc1c[nH]c2ccccc12)NC(=O)[C@@H](CC(=O)NO)CC(C)C [GM6001]
- total tubes length ([1]; 10 μM, DMSO control 4.24±0.31): 2.59±0.05 mm/mm^2
- degree of network branching ([1]; 10 μM, DMSO control 5.86±0.79): 2.45±0.17 per mm^2

Compound: EGF: epidermal growth factor (NSDSECPLSHDGYCLHDGVCMYIEALDKYACNCVVGYIGERCQYRDLKWWELR; UniProt P01133 971-1023, looked up)
- effect on ASC proliferation [2]: strong mitogenic effects

Compound: HGF: hepatocyte growth factor, single growth factor supplement
- total tube length [3]: 0.74±0.21 mm/mm^2
- total tube length [4]: 1.0±0.02 mm/mm^2

Compound: VEGF
- total tube length [3]: 0.9±0.18 mm/mm^2
- increase of total tube length ([1]; EC-ASC co-culture, growth factor 10 ng/ml, vs control media): 76%
- total tube length [4]: 3.2±0.4 mm/mm^2

Compound: bFGF: basic fibroblast growth factor
- effect on ASC proliferation [2]: strong mitogenic effects
